Values of other authors, collected in patent publication US20040208942A1, “Alpha lipoic acid based food supplement for increasing lean muscle mass and strength” (priority 2000, published 2004).

## O=C(O)CCCCC1CCSS1 (stereo not drawn) [α lipoic acid]
Type II diabetes
  body's utilization of blood sugar: significantly increase
Type II diabetics
  increase of the metabolic clearance rate of glucose: 50%
